The results in this text go back to patent US20190169221A1, “SUBSTITUTED NUCLEOSIDES, NUCLEOTIDES AND ANALOGS THEREOF” (Janssen BioPharma, Inc., priority 2016, published 2019).

The subject of assay [1] is Dengue virus type 2 strain New Guinea C (NG-C). The assay can be described thus: Dengue viral assay (cytopathic effect, Huh-7.5 cells). Format: cell-based. As to conditions: read-out: Dengue NGC EC50. Here is the method: The Dengue virus type 2 strain New Guinea C (NG-C) and the Dengue virus type 4 strain H241 were purchased from ATCC (Manassas, Va.; item numbers VR-1584 and VR-1490, respectively). The Zika virus strain MR766 was purchased from ATCC (item #VR-1838) and the Zika virus strain IbH 30656 was purchased from BEI Resources (Manassas, Va.; item number NR-500066). 24 h prior to dosing, Huh-7.5 cells were plated in 96 well plates at a density of 1.5×10^5/mL in DMEM medium supplemented with 10% fetal bovine serum, 1% HEPES buffer, 1% Penicillin/Streptomycin and 1% non-essential amino acids (all Mediatech, Manassas, Va.). At the day of infection, serially diluted compounds were added to cells and incubated for 24 h. After the end of the 24 h pre-incubation period, cells were infected with either Dengue virus type 2 NG-C, Dengue virus type 4 H241, Zika virus strain MR766 or Zika virus strain IbH 30656. The virus inoculum was selected to cause 80-90% cytopathic effect in four (Zika) to five (Dengue) days. Infected cells were incubated for four to five days at 37° C., 5% CO2. To develop the assay, 100 μL media was replaced with 100 μl CellTiter-Glo® reagent (Promega, Madison, Wis.) and incubated for 10 mins at R.T. Luminescence was measured on a Victor ×3 multi-label plate reader. Potential compound cytotoxicity was determined using uninfected parallel cultures.

Assay [2] deals with Human rhinovirus 1B. The assay can be described thus: Picornavirus / enterovirus assay, HRV 1B (HeLa-OHIO cells). Conditions: read-out: HRV 1B EC50. Format: cell-based.
The target in assay [3] is human rhinovirus 16 polymerase (HRV16pol) (Human rhinovirus 16, UniProt Q82122). Put plainly: Picornavirus polymerase inhibition assay. Format: biochemical. As to conditions: triphosphates, read-out: Viral Polymerase Inhibition IC50 Picornavirus. Here is the method:
The enzyme activity of human rhinovirus 16 polymerase (HRV16pol) was measured as an incorporation of tritiated NMP into acid-insoluble RNA products. hV16pol assay reactions contained […] recombinant enzyme, 50 nM heteropolymeric RNA, about 0.5 μCi tritiated NTP, 0.1 mM of competing cold NTP, 40 mM Tris-HCl (pH 7.0), […] dithiothreitol and 0.5 mM MgCl2. Standard reactions were incubated for 2.5 h at 30° C., in the presence of increasing concentration of inhibitor. At the end of the reaction, RNA was precipitated with 10% TCA and acid-insoluble RNA products were filtered on a size exclusion 96-well plate. After washing of the plate, scintillation liquid was added and radiolabeled RNA products were detected using standard procedures with a Trilux Microbeta scintillation counter. The compound concentration at which the enzyme-catalyzed rate was reduced by 50% (IC50) was calculated by fitting the data to a non-linear regression (sigmoidal).

Assay [4] has as its target Dengue viral polymerase (Dengue virus type 2, UniProt P14340). Put plainly: biochemical. Conditions: triphosphates; read-out: Viral Polymerase Inhibition IC50 Dengue.
The target of assay [5] is NS5B-BK (Delta-21) (Hepatitis C virus genotype 1b, UniProt P26663). Put plainly: biochemical. More on the design: species or system HCV.
[6] abbreviates: Huh7.5, Dengue virus type 2 (NG-C strain).
Where [7] appears, read: Rhinovirus A, HeLa-OHIO cells, 33° C.
[8] abbreviates: Dengue virus type 2 (NG-C strain).

pEC50, pIC50: −log10 of the molar value. Like-named read-outs stand apart in the source and are kept apart here.

NS5B-BK (Delta-21), sequence (P26663 2420-2989 limits assumed): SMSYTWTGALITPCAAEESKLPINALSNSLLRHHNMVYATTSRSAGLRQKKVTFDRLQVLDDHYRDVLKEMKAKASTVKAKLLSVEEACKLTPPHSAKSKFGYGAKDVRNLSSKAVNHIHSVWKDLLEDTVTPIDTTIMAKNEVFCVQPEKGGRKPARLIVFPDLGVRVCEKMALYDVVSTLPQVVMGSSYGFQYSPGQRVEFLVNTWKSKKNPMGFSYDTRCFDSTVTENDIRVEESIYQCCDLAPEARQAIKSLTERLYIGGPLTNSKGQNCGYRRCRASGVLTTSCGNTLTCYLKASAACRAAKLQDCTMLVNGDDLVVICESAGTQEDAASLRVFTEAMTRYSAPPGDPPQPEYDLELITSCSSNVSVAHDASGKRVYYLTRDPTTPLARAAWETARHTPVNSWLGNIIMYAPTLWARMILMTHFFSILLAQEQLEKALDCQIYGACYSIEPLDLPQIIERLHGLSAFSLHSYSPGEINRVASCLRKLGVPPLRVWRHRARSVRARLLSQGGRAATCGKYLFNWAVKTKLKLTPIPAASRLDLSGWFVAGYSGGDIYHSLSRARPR
human rhinovirus 16 polymerase (HRV16pol), sequence (Q82122 1694-2153 limits assumed): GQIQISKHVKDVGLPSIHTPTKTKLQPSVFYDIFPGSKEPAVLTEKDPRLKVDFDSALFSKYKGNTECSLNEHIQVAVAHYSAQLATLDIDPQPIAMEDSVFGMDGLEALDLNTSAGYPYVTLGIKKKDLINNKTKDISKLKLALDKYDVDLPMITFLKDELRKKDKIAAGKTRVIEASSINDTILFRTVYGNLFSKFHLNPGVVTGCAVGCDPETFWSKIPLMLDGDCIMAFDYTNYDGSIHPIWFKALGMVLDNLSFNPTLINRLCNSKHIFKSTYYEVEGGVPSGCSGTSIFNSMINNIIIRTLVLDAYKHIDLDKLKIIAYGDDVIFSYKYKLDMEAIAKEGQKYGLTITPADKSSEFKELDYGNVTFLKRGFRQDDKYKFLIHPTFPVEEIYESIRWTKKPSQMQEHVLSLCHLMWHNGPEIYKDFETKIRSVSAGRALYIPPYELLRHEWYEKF

Regarding `C#C[C@]1(O)[C@H](n2cnc3c(N)ncnc32)O[C@](F)(COC(C)=O)[C@H]1OC(C)=O` [Compound 2, ((2S,3S,4R,5R)-3-acetoxy-5-(6-amino-9H-purin-9-yl)-4-ethynyl-2-fluoro-4-hydroxytetrahydrofuran-2-yl)methyl acetate], the pEC50 in assay [1] (setting [6]) and in assay [2] (setting [7]) was above 5.52 in each case.
For the molecule `C#C[C@]1(O)[C@H](n2cnc3c(N)ncnc32)O[C@](F)(COC(=O)C(C)C)[C@H]1OC(=O)C(C)C` [Compound 3, (2S,3S,4R,5R)-5-(6-amino-9H-purin-9-yl)-4-ethynyl-2-fluoro-4-hydroxy-2-((isobutyryloxy)methyl)tetrahydrofuran-3-ylisobutyrate], the pEC50 in assay [1] (setting [6]) and in assay [2] (setting [7]) was above 5.52 each time.
Regarding `C#C[C@@]1(O)[C@H](O)[C@@H](CO)O[C@H]1n1cnc2c(N)nc(F)nc21` [Compound 4, (2R,3R,4R,5R)-2-(6-amino-2-fluoro-9H-purin-9-yl)-3-ethynyl-5-(hydroxymethyl)tetrahydrofuran-3,4-diol], the values for the pEC50 in assay [1] (setting [6]) and in assay [2] (setting [7]) were below 4.00 and 4.52 to 5.52, respectively.
Take `C#C[C@]1(O)[C@H](n2ccc3c(N)ncnc32)O[C@](F)(CO)[C@H]1O` [Compound 6, (2S,3S,4R,5R)-5-(4-amino-7H-pyrrolo[2,3-d]pyrimidin-7-yl)-4-ethynyl-2-fluoro-2-(hydroxymethyl)tetrahydrofuran-3,4-diol]: the figures for the pEC50 in assay [1] (setting [6]) and in assay [2] (setting [7]) were 4.52 to 5.52 and above 5.52, respectively.
Regarding `C#C[C@]1(O)[C@H](n2cc(C(N)=O)c3c(N)ncnc32)O[C@](F)(CO)[C@H]1O` [Compound 10, 4-amino-7-((2R,3R,4S,5S)-3-ethynyl-5-fluoro-3,4-dihydroxy-5-(hydroxymethyl)tetrahydrofuran-2-yl)-7H-pyrrolo[2,3-d]pyrimidine-5-carboxamide], the pEC50 (commonly the EC50 on a negative log10 scale, so that one unit is a factor of ten) in assay [1] (setting [6]) was 4.52 to 5.52; in assay [2] (Rhinovirus A) it was below 4.00.
`C[C@@]1(O)[C@H](O)[C@@H](CO)O[C@H]1n1cnc2c(N)nc(F)nc21` [Compound 16]: the values for the pEC50 in assay [1] (setting [6]) and in assay [2] (setting [7]) were below 4.00 and 4.52 to 5.52, respectively.
Regarding `C#C[C@@]1(O)[C@H](O)[C@@H](COP(=O)(O)OP(=O)(O)OP(=O)(O)O)O[C@H]1n1cnc2c(N)nc(F)nc21` [Compound 17], the pIC50 (as a rule, the negative decadic logarithm of the IC50, by convention in mol/L) was above 5.52 in assay [3], 4.52 to 5.52 in assay [4] and above 5.52 in assay [5].
For `C#C[C@@]1(O)[C@H](O)[C@@H](COP(=O)(O)OP(=O)(O)OP(=O)(O)O)O[C@H]1n1cnc2c(N)nc(N)nc21` [Compound 18], the pIC50 was above 5.52 in assay [3], 4.52 to 5.52 in assay [4] and above 5.52 in assay [5].
Consider `C#C[C@]1(O)[C@H](n2ccc3c(N)ncnc32)O[C@](F)(COP(=O)(O)OP(=O)(O)OP(=O)(O)O)[C@H]1O` [Compound 19], for which the pIC50 is above 5.52 in assay [3], 4.52 to 5.52 in assay [4] and above 5.52 in assay [5].
With `C[C@]1(O)[C@H](n2cnc3c(N)ncnc32)O[C@](F)(COP(=O)(O)OP(=O)(O)OP(=O)(O)O)[C@H]1O` [Compound 20], the negative-log IC50 (pIC50) was above 5.52 in assay [3], 4.52 to 5.52 in assay [4] and above 5.52 in assay [5].
With `C[C@]1(F)[C@H](n2cnc3c(N)nc(N)nc32)O[C@](F)(COP(=O)(O)OP(=O)(O)OP(=O)(O)O)[C@H]1O` [Compound 21], the results for the pIC50 in assay [3], in assay [4] and in assay [5] were above 5.52, 4.00 to 4.52 and above 5.52, respectively.
Consider `C[C@]1(F)[C@H](n2cnc3c(N)ncnc32)O[C@](F)(COP(=O)(O)OP(=O)(O)OP(=O)(O)O)[C@H]1O` [Compound 22], for which the pIC50 in assay [3] is above 5.52; in assay [4], 4.52 to 5.52; in assay [5] it was above 5.52.
As for `C#C[C@@]1(O)[C@H](O)[C@@H](CO)O[C@H]1c1cnc2c(N)ncnn12` [Compound 27, (2S,3R,4R,5R)-2-(4-aminoimidazo[2,1-f][1,2,4]triazin-7-yl)-3-ethynyl-5-(hydroxymethyl)tetrahydrofuran-3,4-diol], the pEC50 in assay [1] (setting [6]) and in assay [2] (setting [7]) was above 5.52 in each case.
Take `C#C[C@]1(OC(C)=O)[C@H](n2cnc3c(N)ncnc32)O[C@](F)(COC(C)=O)[C@H]1OC(C)=O` [Compound 34, (2S,3S,4R,5R)-2-(acetoxymethyl)-5-(6-amino-9H-purin-9-yl)-4-ethynyl-2-fluorotetrahydrofuran-3,4-diyldiacetate]: the pEC50 in assay [1] (setting [8]) is above 5.52; in assay [2] (HeLa-OHIO cells, 33° C.), above 5.52.
As to `C#C[C@]1(O)[C@H](n2cnc3c(N)ncnc32)O[C@](F)(COC(=O)CC)[C@H]1OC(=O)CC` [Compound 36], the pEC50 in assay [1] (setting [6]) and in assay [2] (setting [7]) was above 5.52 in each case.
For the molecule `C#C[C@]1(O)[C@H](n2cnc3c(N)ncnc32)O[C@](F)(COC(=O)CCC)[C@H]1OC(=O)CCC` [Compound 37, (2S,3S,4R,5R)-5-(6-amino-9H-purin-9-yl)-2-((butyryloxy)methyl)-4-ethynyl-2-fluoro-4-hydroxytetrahydrofuran-3-ylbutyrate], the pEC50 in assay [1] (setting [6]) and in assay [2] (setting [7]) was above 5.52 each time.
Turning to `C#C[C@]1(OC(=O)CC)[C@H](n2cnc3c(N)ncnc32)O[C@](F)(COC(=O)CC)[C@H]1OC(=O)CC` [Compound 38, (2S,3S,4R,5R)-5-(6-amino-9H-purin-9-yl)-4-ethynyl-2-fluoro-2-((propionyloxy)methyl)tetrahydrofuran-3,4-diyldipropionate], the negative logarithm of the EC50 (pEC50) in assay [1] (setting [6]) and in assay [2] (setting [7]) was above 5.52 in each case.
With `C#C[C@]1(O)[C@H](n2cnc3c(N)ncnc32)O[C@](F)(CO)[C@H]1OC(=O)CCCCCCCCC` [Compound 39, (2S,3S,4R,5R)-5-(6-amino-9H-purin-9-yl)-4-ethynyl-2-fluoro-4-hydroxy-2-(hydroxymethyl)tetrahydrofuran-3-yldecanoate], the pEC50 in assay [1] (setting [6]) and in assay [2] (setting [7]) was above 5.52 throughout.
On to `C#C[C@]1(O)[C@H](n2cnc3c(NC(=O)OC(C)(C)C)ncnc32)O[C@](F)(COC(c2ccccc2)(c2ccccc2)c2ccc(OC)cc2)[C@H]1OC(=O)CCCCCCC` [Compound 40], for which the pEC50 in assay [1] (setting [8]) was above 5.52; in assay [2] (HeLa-OHIO cells, 33° C.), above 5.52.
On to `C#C[C@]1(O)[C@H](n2cnc3c(N)ncnc32)O[C@](F)(CO)[C@H]1OC(=O)[C@@H](N)C(C)C` [Compound 41, (2S,3S,4R,5R)-5-(6-amino-9H-purin-9-yl)-4-ethynyl-2-fluoro-4-hydroxy-2-(hydroxymethyl)tetrahydrofuran-3-yl L-valinate], for which the pEC50 in assay [1] (setting [6]) and in assay [2] (setting [7]) was above 5.52 in each case.
With `C#C[C@]1(O)[C@H](n2cnc3c(NC(=O)OC(C)(C)C)ncnc32)O[C@](F)(COC(c2ccccc2)(c2ccccc2)c2ccc(OC)cc2)[C@H]1OC(=O)CCCCCCCCCCC` [Compound 42, (2S,3S,4R,5R)-5-(6-((tert-butoxycarbonyl)amino)-9H-purin-9-yl)-4-ethynyl-2-fluoro-4-hydroxy-2-(((4-methoxyphenyl)diphenylmethoxy)methyl)tetrahydrofuran-3-yl-dodecanoate], the pEC50 in assay [1] (setting [6]) and in assay [2] (setting [7]) was above 5.52 throughout.
Take `C#C[C@]1(O)[C@H](n2cnc3c(N)ncnc32)O[C@](F)(COC(=O)CCCCCCCCC)[C@H]1O` [Compound 44, ((2S,3S,4R,5R)-5-(6-amino-9H-purin-9-yl)-4-ethynyl-2-fluoro-3,4-dihydroxytetrahydrofuran-2-yl)methyldecanoate]: the pEC50 in assay [1] (setting [6]) and in assay [2] (setting [7]) was above 5.52 each time.
Regarding `C#C[C@]1(O)[C@H](n2cnc3c(N)ncnc32)O[C@](F)(CO)[C@H]1OC(=O)NCCC` [Compound 49, (2S,3S,4R,5R)-5-(6-amino-9H-purin-9-yl)-4-ethynyl-2-fluoro-4-hydroxy-2-(hydroxymethyl)tetrahydrofuran-3-ylpropylcarbamate], the pEC50 in assay [1] (setting [8]) was 4.00 to 4.52; in assay [2] (HeLa-OHIO cells, 33° C.) it was 4.52 to 5.52.
“(2S,3S,4R,5R)-5-(4-amino-5-fluoro-7H-pyrrolo[2,3-d]pyrimidin-7-yl)-4-ethynyl-2-fluoro-2-(hydroxymethyl)tetrahydrofuran-3,4-diol [Compound 31]”: the pEC50 is above 5.52 in assay [1] (setting [8]) and above 5.52 in assay [2] (HeLa-OHIO cells, 33° C.).
